Test systems include 786-0; A549; ACHN; HCT-116; HCT-15; HOP-62; HOP-92; KM12; Malme-3M; NCI-H23; OVCAR-3; OVCAR-4; OVCAR-8; SK-MEL-28; SK-MEL-5; SK-OV-3; SN12C; SNB-75; UACC-257; UACC-62.
Holding throughout (assay): NCI tumour cell line growth inhibition, 48 h

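All cell lines were grown in 96-well plates and treated with compound for 48 hours. GI50 = concentration required for 50% inhibition of growth.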 Activity calls are given as the source filed them. No stated cut-off is given here; in the data, active = GI50 up to about 1.1 µM and inactive = higher.

For the compound `O=[N+]([O-])/C=C/c1cn(CCCCCCCCn2cc(/C=C/[N+](=O)[O-])c3ccccc32)c2ccccc12`, the GI50 with 786-0 was > 10 µM (inactive); with A549, > 10 µM (inactive); in the assay with ACHN it was > 10 µM (inactive); in the assay on HCT-116 it was 0.211 µM (active); with HCT-15 it was above 10 µM; in the assay with HOP-62 it was > 10 µM (inactive). Also, the GI50 in the assay on HOP-92, in the assay with KM12, in the assay with Malme-3M, in the assay on NCI-H23, in the assay with OVCAR-3 and in the assay with OVCAR-4 was > 10 µM (inactive) each time. In addition, the GI50 in the assay on OVCAR-8, with SK-MEL-28, in the assay with SK-MEL-5, with SK-OV-3, with SN12C and in the assay with SNB-75 was > 10 µM (inactive) throughout. The GI50 with UACC-257 and in the assay with UACC-62 was > 10 µM (inactive) each time.
As to `Oc1ccccc1C1C=C(c2ccccc2)NC(N2CCCCC2)=C1c1nc2ccccc2[nH]1` (stereo not drawn), the GI50 with 786-0 is 12.7 µM (inactive); with A549, 15.7 µM (inactive); in the assay on ACHN, 18.2 µM (inactive); in the assay on HCT-116, 11.7 µM (inactive); in the assay on HCT-15, 18.2 µM; in the assay on HOP-62, 14.1 µM (inactive). Besides, the GI50 in the assay on HOP-92 is 13.7 µM (inactive); with KM12 it was 16.6 µM (inactive); in the assay on Malme-3M, 15.8 µM (inactive); with NCI-H23 it was 15.3 µM (inactive); in the assay on OVCAR-3, 14.6 µM (inactive); in the assay with OVCAR-4 it was 13.3 µM (inactive). The GI50 in the assay on OVCAR-8 is 15.9 µM (inactive); in the assay with SK-MEL-28, 15.9 µM (inactive); with SK-MEL-5 it was 13.9 µM (inactive); in the assay with SK-OV-3, 13.5 µM (inactive); with SN12C, 16.1 µM (inactive); in the assay with SNB-75 it was 4.57 µM (inactive). Besides, the figures for the GI50 in the assay on UACC-257 and in the assay with UACC-62 were 16 µM (inactive) and 15.8 µM (inactive), respectively.
Consider `N#Cc1c(Nc2ccc(F)cc2)[n+]([O-])c2ccc(Cl)cc2[n+]1[O-]`, for which the GI50 with 786-0 is 3.34 µM (inactive); with A549, 0.568 µM (active); in the assay on HCT-116 it was 3.05 µM (inactive); in the assay on HCT-15 it was 2.5 µM; with HOP-62, 4.52 µM (inactive); with HOP-92, 2.14 µM (inactive). Besides, the GI50 in the assay on KM12 is 5.57 µM (inactive); in the assay on Malme-3M, 27.5 µM (inactive); in the assay with NCI-H23, 3.84 µM (inactive); with OVCAR-3, 2.62 µM (inactive); in the assay with OVCAR-4, 2.03 µM (inactive); in the assay on OVCAR-8, 3.55 µM (inactive). In addition, the GI50 in the assay with SK-MEL-28 is 16.1 µM (inactive); with SK-MEL-5, 3.91 µM (inactive); in the assay on SK-OV-3 it was 4.06 µM (inactive); in the assay with SN12C, 2.55 µM (inactive); with SNB-75, 17.7 µM (inactive); with UACC-257, 2.91 µM (inactive). In the assay with UACC-62, the GI50 is 3.66 µM (inactive).
In the case of `COc1ccc(-c2cc(=O)c3c(OC)c(O)c(OC)cc3o2)cc1`, the GI50 in the assay with 786-0 was 47.4 µM (inactive); with A549, 42.5 µM (inactive); in the assay with ACHN, 30.5 µM (inactive); with HCT-116, 46.8 µM (inactive); in the assay with HCT-15, 35 µM; in the assay on HOP-62, 38.1 µM (inactive). Further, the GI50 with HOP-92 is 20.9 µM (inactive); with Malme-3M, 96.2 µM (inactive); in the assay on NCI-H23 it was 48.5 µM (inactive); with OVCAR-3 it was 34 µM (inactive); with OVCAR-4 it was 40.4 µM (inactive); in the assay with OVCAR-8, 56.6 µM (inactive). For the same compound, the GI50 in the assay with SK-MEL-28 was > 100 µM (inactive); with SK-MEL-5 it was 23.4 µM (inactive); in the assay on SK-OV-3, 50.7 µM (inactive); with SN12C, 26.9 µM (inactive); in the assay with SNB-75 it was 21.8 µM (inactive); in the assay with UACC-257, 36.1 µM (inactive). Besides, the GI50 with UACC-62 was 30.8 µM (inactive).

(Values after ChEMBL document CHEMBL1201862, “PubChem BioAssay data set” (2004).)
